Where “and” joins values, the source holds several entries; their conditions need not be identical. Equal values may be shown once.
How the values were obtained:
Test in all cases: biochemical
Assay type in all cases: biochemical
various kinases [1] = molecular target: T1, various kinases (Homo sapiens, UniProt O94806); settings: kinase PRKCN (PKD3); ZLYTE
T1 sequence (O94806 1-890): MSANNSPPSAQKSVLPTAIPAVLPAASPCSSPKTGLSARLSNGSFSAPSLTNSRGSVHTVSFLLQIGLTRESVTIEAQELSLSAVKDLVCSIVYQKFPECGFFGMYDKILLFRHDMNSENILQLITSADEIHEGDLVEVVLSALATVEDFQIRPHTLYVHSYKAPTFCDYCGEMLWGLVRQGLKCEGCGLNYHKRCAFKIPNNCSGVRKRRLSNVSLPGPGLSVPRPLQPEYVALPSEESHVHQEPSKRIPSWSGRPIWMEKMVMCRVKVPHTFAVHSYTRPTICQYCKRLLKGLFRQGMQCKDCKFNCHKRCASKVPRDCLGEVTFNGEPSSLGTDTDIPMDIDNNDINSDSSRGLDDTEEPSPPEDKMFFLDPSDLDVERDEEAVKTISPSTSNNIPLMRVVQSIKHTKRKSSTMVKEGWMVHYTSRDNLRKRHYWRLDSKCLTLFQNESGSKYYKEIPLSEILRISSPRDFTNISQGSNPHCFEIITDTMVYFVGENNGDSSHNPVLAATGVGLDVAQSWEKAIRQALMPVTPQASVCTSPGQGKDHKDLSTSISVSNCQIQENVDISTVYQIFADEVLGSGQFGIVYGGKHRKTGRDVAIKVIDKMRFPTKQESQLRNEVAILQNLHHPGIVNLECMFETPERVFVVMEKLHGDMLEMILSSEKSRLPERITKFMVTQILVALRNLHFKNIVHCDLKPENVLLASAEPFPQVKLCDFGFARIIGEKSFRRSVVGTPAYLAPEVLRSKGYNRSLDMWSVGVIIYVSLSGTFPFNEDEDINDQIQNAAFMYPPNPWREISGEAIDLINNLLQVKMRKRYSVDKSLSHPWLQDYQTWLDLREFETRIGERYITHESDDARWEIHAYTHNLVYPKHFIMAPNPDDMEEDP

various kinases [2] = molecular target: various kinases (Homo sapiens, UniProt P08581, Y1235D); settings: MET (cMet) Y1235D
various kinases [3] = molecular target: various kinases (Homo sapiens, UniProt P07947); settings: kinase YES1; ZLYTE
various kinases [4] = molecular target: various kinases (Homo sapiens, UniProt O14757); settings: CHEK1 (CHK1)
various kinases [5] = molecular target: various kinases (Homo sapiens, UniProt Q9HCP0); settings: CSNK1G1 (CK1 gamma 1)
various kinases [6] = molecular target: various kinases (Homo sapiens, UniProt Q12851); settings: MAP4K2 (GCK)
various kinases [7] = molecular target: various kinases (Homo sapiens, UniProt P16591); settings: FER
various kinases [8] = molecular target: various kinases (Homo sapiens, UniProt P36888); settings: FLT3
various kinases [9] = molecular target: various kinases (Homo sapiens, UniProt Q8TD19); settings: NEK9
various kinases [10] = molecular target: various kinases (Homo sapiens, UniProt P00519, F317I); settings: ABL1 F317I
various kinases [11] = molecular target: various kinases (Homo sapiens, UniProt P54760); settings: EPHB4
various kinases [12] = molecular target: various kinases (Homo sapiens, UniProt P45983); settings: MAPK8 (JNK1)
various kinases [13] = molecular target: various kinases (Homo sapiens, UniProt P29597); settings: kinase TYK2; ZLYTE
various kinases [14] = molecular target: various kinases (Homo sapiens, UniProt P14616); settings: INSRR (IRR)
various kinases [15] = molecular target: various kinases (Homo sapiens, UniProt P22607, K650E); settings: FGFR3 K650E
various kinases [16] = molecular target: T2, various kinases (Homo sapiens, UniProt Q13976); settings: kinase PRKG1; ZLYTE
T2 sequence (Q13976 1-671): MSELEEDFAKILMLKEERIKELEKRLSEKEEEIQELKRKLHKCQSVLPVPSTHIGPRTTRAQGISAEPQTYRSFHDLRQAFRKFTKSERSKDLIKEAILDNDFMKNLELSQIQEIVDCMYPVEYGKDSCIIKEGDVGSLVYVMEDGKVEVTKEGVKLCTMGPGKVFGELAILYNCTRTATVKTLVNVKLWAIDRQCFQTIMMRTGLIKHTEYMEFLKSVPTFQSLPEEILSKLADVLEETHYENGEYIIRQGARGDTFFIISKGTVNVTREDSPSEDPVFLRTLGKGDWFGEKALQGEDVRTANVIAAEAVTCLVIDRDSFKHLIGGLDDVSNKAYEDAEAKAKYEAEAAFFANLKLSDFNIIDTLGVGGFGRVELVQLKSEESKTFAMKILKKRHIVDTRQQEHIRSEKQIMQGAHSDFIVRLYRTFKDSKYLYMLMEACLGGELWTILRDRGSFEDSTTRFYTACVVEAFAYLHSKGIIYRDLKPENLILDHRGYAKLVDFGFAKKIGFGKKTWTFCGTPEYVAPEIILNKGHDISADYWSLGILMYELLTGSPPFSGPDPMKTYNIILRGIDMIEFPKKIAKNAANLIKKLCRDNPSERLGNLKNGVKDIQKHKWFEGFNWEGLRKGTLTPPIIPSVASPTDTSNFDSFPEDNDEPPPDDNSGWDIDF

various kinases [17] = molecular target: various kinases (Homo sapiens, UniProt P11362); settings: FGFR1
Throughout, for % Inhibition Average: test concentration or dose not given here.
Throughout, for % Inhibition Duplicate #1: test concentration or dose not given here.
Throughout, for % Inhibition Duplicate #2: test concentration or dose not given here.

Sequence of various kinases (Homo sapiens, UniProt P07947) (P07947 whole entry): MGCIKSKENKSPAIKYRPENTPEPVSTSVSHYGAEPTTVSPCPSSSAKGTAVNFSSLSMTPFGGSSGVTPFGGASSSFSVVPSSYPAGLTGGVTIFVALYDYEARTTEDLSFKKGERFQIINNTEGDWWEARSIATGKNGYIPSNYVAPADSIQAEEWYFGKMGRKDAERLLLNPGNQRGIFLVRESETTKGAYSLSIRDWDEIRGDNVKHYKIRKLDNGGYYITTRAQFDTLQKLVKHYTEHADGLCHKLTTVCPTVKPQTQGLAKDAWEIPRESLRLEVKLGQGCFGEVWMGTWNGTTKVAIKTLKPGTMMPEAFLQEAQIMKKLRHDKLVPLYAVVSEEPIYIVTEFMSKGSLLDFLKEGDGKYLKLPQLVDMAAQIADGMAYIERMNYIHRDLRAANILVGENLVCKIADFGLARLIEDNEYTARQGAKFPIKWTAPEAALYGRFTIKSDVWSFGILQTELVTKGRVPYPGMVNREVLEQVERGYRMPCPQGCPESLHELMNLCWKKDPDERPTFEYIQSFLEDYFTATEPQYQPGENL
Sequence of various kinases (Homo sapiens, UniProt P29597) (P29597 whole entry): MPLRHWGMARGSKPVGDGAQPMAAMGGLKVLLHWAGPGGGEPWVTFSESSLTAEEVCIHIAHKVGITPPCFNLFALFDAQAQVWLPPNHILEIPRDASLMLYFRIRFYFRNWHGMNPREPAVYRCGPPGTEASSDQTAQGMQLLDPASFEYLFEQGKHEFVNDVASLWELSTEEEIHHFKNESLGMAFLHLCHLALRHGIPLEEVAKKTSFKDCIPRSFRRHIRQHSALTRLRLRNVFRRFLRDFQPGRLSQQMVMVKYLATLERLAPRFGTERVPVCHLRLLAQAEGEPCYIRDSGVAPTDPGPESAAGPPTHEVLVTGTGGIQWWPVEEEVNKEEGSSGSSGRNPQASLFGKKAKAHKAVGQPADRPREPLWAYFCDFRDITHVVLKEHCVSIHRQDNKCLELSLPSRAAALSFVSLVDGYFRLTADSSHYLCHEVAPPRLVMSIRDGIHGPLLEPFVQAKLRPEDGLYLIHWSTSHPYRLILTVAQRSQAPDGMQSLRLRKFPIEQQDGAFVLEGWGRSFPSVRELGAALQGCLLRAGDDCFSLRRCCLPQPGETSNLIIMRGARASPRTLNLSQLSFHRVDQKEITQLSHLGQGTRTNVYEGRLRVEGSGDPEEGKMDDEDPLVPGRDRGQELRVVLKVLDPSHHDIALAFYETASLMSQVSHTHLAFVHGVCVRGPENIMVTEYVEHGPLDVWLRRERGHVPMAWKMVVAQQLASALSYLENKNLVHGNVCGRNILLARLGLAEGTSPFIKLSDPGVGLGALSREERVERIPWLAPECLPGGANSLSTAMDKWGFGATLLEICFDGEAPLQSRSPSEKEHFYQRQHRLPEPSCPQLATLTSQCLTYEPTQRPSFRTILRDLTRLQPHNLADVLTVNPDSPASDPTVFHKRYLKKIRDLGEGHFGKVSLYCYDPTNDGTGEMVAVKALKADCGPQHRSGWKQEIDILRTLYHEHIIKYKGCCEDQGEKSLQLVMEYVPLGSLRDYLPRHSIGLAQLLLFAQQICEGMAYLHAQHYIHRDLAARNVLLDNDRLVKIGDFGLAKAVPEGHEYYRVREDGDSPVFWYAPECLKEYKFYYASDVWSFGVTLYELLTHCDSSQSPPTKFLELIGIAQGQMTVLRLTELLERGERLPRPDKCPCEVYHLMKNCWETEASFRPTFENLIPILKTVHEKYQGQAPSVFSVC
Sequence of various kinases (Homo sapiens, UniProt P54760) (P54760 16-987): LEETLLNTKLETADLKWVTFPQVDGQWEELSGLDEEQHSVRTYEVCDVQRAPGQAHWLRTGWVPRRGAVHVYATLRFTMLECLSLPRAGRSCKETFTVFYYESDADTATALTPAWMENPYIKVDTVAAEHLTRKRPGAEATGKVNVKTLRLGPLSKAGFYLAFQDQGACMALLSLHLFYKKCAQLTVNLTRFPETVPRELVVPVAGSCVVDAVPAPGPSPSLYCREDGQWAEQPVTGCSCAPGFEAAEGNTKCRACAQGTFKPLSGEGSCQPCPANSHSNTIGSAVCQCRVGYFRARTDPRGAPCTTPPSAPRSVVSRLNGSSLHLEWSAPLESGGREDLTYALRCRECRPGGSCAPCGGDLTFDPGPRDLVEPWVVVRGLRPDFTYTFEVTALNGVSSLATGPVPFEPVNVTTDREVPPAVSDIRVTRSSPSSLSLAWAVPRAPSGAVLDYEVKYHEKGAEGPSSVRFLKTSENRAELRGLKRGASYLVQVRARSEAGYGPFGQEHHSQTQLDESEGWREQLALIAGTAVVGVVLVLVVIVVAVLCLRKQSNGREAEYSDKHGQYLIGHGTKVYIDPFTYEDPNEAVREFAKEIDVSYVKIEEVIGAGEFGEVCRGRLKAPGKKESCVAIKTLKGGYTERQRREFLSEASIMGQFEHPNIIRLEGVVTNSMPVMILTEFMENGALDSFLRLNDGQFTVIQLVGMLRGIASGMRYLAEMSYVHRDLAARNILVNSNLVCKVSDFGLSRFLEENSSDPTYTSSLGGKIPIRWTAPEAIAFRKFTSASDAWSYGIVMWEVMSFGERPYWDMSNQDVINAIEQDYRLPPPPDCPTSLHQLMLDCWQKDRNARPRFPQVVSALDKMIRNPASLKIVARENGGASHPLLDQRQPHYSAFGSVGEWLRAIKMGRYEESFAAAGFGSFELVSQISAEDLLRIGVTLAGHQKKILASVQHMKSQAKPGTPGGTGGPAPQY
Sequence of various kinases (Homo sapiens, UniProt P11362) (P11362 22-822): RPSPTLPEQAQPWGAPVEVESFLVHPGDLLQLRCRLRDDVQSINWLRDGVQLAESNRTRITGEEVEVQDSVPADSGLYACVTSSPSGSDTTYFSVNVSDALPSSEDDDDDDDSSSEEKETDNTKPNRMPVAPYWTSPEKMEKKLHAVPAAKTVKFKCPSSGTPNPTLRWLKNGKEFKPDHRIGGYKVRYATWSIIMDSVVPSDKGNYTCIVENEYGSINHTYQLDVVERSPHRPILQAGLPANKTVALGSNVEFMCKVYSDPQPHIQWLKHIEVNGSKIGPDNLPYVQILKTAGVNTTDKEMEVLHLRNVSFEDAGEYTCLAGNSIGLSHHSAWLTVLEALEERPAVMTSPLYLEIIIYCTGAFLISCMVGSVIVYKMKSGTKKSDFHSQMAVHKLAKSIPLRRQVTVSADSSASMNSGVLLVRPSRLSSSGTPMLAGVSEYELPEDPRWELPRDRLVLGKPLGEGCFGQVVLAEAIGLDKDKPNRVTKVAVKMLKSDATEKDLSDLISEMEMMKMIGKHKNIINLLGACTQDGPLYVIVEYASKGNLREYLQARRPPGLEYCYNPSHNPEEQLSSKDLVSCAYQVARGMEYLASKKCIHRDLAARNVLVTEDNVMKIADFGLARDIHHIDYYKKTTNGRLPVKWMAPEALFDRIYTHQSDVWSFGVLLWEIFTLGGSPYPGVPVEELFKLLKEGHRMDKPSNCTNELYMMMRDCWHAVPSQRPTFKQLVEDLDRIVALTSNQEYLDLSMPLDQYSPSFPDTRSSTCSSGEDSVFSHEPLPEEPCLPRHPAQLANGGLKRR
Sequence of various kinases (Homo sapiens, UniProt O14757) (O14757 whole entry): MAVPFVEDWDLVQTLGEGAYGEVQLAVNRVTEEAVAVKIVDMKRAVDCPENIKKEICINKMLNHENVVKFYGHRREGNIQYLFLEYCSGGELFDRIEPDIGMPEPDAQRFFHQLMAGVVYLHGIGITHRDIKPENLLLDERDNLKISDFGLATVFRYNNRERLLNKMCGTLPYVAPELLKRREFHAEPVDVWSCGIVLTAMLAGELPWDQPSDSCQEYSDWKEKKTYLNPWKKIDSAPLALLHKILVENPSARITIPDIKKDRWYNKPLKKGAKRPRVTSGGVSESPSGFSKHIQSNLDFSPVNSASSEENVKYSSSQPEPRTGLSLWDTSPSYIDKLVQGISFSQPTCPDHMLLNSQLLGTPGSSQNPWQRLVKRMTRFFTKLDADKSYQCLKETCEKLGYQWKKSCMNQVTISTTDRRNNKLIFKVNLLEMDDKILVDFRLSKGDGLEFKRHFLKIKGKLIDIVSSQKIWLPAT
Sequence of various kinases (Homo sapiens, UniProt Q12851) (Q12851 whole entry): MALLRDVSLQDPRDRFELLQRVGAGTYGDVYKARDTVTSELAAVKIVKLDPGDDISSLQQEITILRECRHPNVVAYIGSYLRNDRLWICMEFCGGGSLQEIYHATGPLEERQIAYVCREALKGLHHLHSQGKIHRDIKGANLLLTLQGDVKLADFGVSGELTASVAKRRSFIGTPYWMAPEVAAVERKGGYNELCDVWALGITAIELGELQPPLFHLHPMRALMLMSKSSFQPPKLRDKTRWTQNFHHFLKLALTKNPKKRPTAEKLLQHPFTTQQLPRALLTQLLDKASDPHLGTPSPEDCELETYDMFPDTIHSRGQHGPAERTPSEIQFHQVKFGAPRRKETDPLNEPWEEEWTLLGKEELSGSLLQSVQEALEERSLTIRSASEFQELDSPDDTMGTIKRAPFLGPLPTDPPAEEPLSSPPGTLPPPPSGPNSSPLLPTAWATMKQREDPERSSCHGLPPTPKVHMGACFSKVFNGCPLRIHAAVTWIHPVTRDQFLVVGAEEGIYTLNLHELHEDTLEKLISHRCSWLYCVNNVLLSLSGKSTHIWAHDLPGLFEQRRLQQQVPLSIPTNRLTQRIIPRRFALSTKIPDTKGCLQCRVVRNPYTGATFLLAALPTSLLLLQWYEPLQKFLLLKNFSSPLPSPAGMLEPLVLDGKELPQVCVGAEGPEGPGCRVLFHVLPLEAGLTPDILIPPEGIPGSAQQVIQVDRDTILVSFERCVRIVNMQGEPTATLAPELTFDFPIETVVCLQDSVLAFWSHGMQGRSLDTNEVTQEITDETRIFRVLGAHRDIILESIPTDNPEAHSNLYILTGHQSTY

COc1ccc2c(c1)[C@]1(C[C@H]1c1ccc3c(/C=C/c4ccc(CN5C[C@@H](C)O[C@@H](C)C5)cc4)n[nH]c3c1)C(=O)N2 [CFI-400945]
% Inhibition Average (various kinases [1]): 4% | % Inhibition Duplicate #1 (various kinases [1]): 3% | % Inhibition Duplicate #2 (various kinases [1]): 4% | % Inhibition (various kinases [2]): 5% and 6% | % Inhibition Average (various kinases [3]): 17% | % Inhibition Duplicate #1 (various kinases [3]): 16% | % Inhibition Duplicate #2 (various kinases [3]): 18% | % Inhibition (various kinases [4]): 9% and 11% | % Inhibition (various kinases [5]): -1% and 3% | % Inhibition (various kinases [6]): 43% and 39% | % Inhibition (various kinases [7]): 7% and 11% | % Inhibition (various kinases [8]): 74% | IC50 (various kinases [8]): 59.7 nM | % Inhibition (various kinases [9]): 10% and 4% | % Inhibition (various kinases [10]): 4% and 5% | % Inhibition (various kinases [11]): 5% and 8% | % Inhibition (various kinases [12]): -3% and -1% | % Inhibition Average (various kinases [13]): 2% | % Inhibition Duplicate #1 (various kinases [13]): 2% | % Inhibition Duplicate #2 (various kinases [13]): 2% | % Inhibition (various kinases [14]): 4% and 6% | % Inhibition (various kinases [15]): 38% and 44% | % Inhibition Average (various kinases [16]): 5% | % Inhibition Duplicate #1 (various kinases [16]): 6% | % Inhibition Duplicate #2 (various kinases [16]): 4% | % Inhibition (various kinases [17]): 59% and 55%
